Laboratory results published in publication PMC5974752, “Bax/Tubulin/Epithelial-Mesenchymal Pathways Determine the Efficacy of Silybin Analog HM015k in Colorectal Cancer Cell Growth and Metastasis” (Frontiers in Pharmacology, 2018).

Columns and labels:
Format in all cases: cell-based, human
HCT116 cells [1] = assay: IncuCyte annexin V red real time apoptosis
Procedure: For real time quantification of apoptosis induction, the fluorescent Caspase 3/7 and Annexin V red reagents, with an excitation maximum of 500 and 593 nm and an emission maximum of 530 and 614 nm, respectively, were used. The HCT116 cells were seeded at a density of 1,000 cell/well and allowed to grow overnight. The next day, compound 15k at 0, 2, 4, and 8μM was prepared and added, directly followed by the caspase 3/7 reagent at final concentration of 5μM or annexin V red reagent in final dilution of 1: 200. The cells were then incubated in IncuCyte Zoom live cell imaging and pictures were taken every 2 h for up to 50 h and analyzed using the integrated software. The IncuCyte® Caspase-3/7 apoptosis assay reagent couples the activated caspase-3/7 recognition motif (DEVD) to NucView™ 488, a DNA intercalating dye to enable quantification of apoptosis over time. Caspase-3/7 assay reagent is non-perturbing to cell growth and morphology. When added to cell culture medium, this inert, non-fluorescent substrate crosses the cell membrane, where it is cleaved by activated caspase-3/7, resulting in the release of the DNA dye and green fluorescent staining of nuclear DNA.

HCT116 cells [2] = assay: IncuCyte Cytotox green real time cell death
Procedure: For real time quantification of cell death, the Incucyte Cytotox green reagent was used. […] The plasma membrane integrity is decreased in unhealthy cells, allowing entry of the IncuCyte Cytotox reagent, yielding a 100- to 1,000-fold increase in fluorescence upon binding to deoxyribonucleic acid (DNA) (at an excitation maximum of 491 nm and an emission maximum of 509 nm). The HCT116 cells were seeded at a density of 1,000 cell/well and allowed to grow overnight. […] The cells were then incubated in a IncuCyte Zoom live cell imaging apparatus and pictures were taken every 2 h for up to 50 h.The IncuCyte® integrated analysis software was used to quantify the fluorescent objects and minimize the background fluorescence (IncuCyte ZOOM version 2016A, Essen BioScience, Ann Arbor, MI 48108, USA).

HCT116 cells [3] = assay: Hoechst staining of nuclear condensation; settings: 2 or 4 μM, overnight, vs vehicle
Procedure: Nuclear condensation was detected using Hoechst 33258 DNA dye. HCT116 cells were seeded at 1 × 10^5 cells/well in 6-well plates and incubated overnight at 37°C. The following day, cells were exposed to 15k or 15j (0, 2, and 4 μM) and further incubated overnight at 37°C. The cells were fixed and stained with Hoechst 33258 for at least 30 min. An EVOS digital microscope was used to detect the stained nucleus fluorescence at wavelengths of 460–490 nm.

[4] = system: CRC cell lines (HCT116, LOVO, and S1); assay: MTT assay, CRC cell lines together; settings: MTT
Procedure: The 3-(4,5-dimethylthiazol-2-yl)-2,5-diphenyltetrazolium bromide (MTT) assay was used to determine the sensitivity of the different CRC cells to the novel silybin derivatives (Hussein et al., [2017]; Manivannan et al., [2017]). The cells were seeded at a density of 4,000–5,000 cells/well in 96 well plates and incubated with serial dilutions of the compounds (0, 0.1, 0.3, 1, 3, 10, 30, and 100 μM). The MTT dye (4 mg/ml) was added after 72 h of incubation and incubated with the cells for an additional 4 h at 37°C. Following incubation, the media was discarded and the formazan crystals were dissolved by adding 100 μL of DMSO to each well. A DTX 880 multimode detector (Beckman Coulter Life, Indianapolis IN, USA) was used to determine the absorbance readings at a wavelength of 570 nm. The IC50 values were determined based on 3 separate experiments, with each experiment done in triplicate. The selectivity of the compounds was determined by comparing their cytotoxicity for CRC to normal epithelial cell lines (CHO, and CRL1459).

- IC50 ([4]; Homo sapiens, range over HCT116, S1 and LOVO, read-out: IC50 in the CRC cells): 1000 to 2000 nM
SMILES: O=C(/C=C/c1cccc(OCc2ccccc2)c1)c1ccc(O)cc1 [Compound 15k]
- annexin V red fluorescence over time (HCT116 cells [1]; 2, 4 or 8 μM, vs control): significantly increased annexin V red fluorescence
- incubation time at which significant difference in annexin V fluorescence appeared (HCT116 cells [1]; vehicle vs 15k): 12 h
- time of significant difference in the number of dead cells (HCT116 cells [2]; 2 μM, vs vehicle): 24 h
- time of significant increase in cell death (HCT116 cells [2]; 4 and 8 μM, vs control cells): 12 h
- nuclear condensation / fragmentation (HCT116 cells [3]): significant increase in blue fluorescence, as well as highly condensed, fragmented nuclei chromatin
- selectivity, CRC cells compared to normal cells ([4]; vs CRL1459 and CHO): selectively cytotoxic
